Active and inactive are the calls of the source. How the calls were made is not given here.

Our source for the IC50 values is PubChem BioAssay AID849 (SRMLSC, 2007).

For the assay, the system named is Saccharomyces cerevisiae lifespan shortening, growth inhibition. Description: yeast lifespan shortening compounds, dose response (AID 849).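 Further: yeast growth read as optical density after two days at 30 degrees C.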
For the compound `CC1CCCC2(C1)NC(=S)c1c(sc3c1CCCC3)N2` (stereo not drawn), the IC50 was > 100 µM (inactive).
The figure for `COc1cccc2sc(Nc3nc(-c4ccccn4)cs3)nc12` is 20.4 µM; for `Cc1ccc2[nH]c3c(c2c1)CCc1cn[nH]c1-3` it is 15.6 µM; for `COc1cc(OC)nc(NC(=O)CS(=O)(=O)c2ccccc2)n1` it is 33.4 µM.
With `CCCCOC(=O)n1c(=S)oc2cc(Cl)ccc21` the figure was 16.5 µM; with `CCCCCCCCC/C(=N\O)c1ccccn1`, 4.51 µM; with `COc1ccccc1C(=O)NNC(=S)NC(=O)c1ccco1`, > 100 µM (inactive).
With `COc1ccc(C(=O)/C=C/N2CCCCC2)cc1OC` the figure was 21.4 µM; with `CCc1ccc2c(c1)C1(NN=C(c3cccc4ccccc34)S1)C(=O)N2` (stereo not drawn), 41.3 µM.
Take `O=C1C(=O)c2c(C(=O)c3ccccc3)coc2-c2ccccc21`: the IC50 was 13.4 µM.
Regarding `O=C(O)CCn1cc(/C=C/C(=O)c2ccc(Cl)cc2)c(-c2ccc(Br)cc2)n1`, the IC50 was > 100 µM (inactive).
With `CCc1cccc(C)c1NC(=S)NCCc1c(C)[nH]c2ccc(C)cc12` the figure was 41 µM; with `NC(=O)c1sc2nc(-c3ccco3)ccc2c1N`, > 100 µM (inactive); with `CCOc1ccc(-c2[nH]ncc2Oc2cccc(OC)c2)c(O)c1`, 22.8 µM.
The figure for `COc1ccc(-c2cc(-c3ccccc3O)[nH]n2)cc1` is > 100 µM (inactive).
With `CC1=C(C)/C(=N\OS(=O)(=O)c2ccc(C)cc2)C=CC1=O` the figure was 12.5 µM; with `COC(=O)CSCc1nc2ccccc2[nH]c1=O`, > 100 µM (inactive).
Turning to `Cc1ccc(-c2nc3sc(C(N)=O)c(N)c3c3c2CCCC3)cc1`, the IC50 is > 100 µM (inactive).
As to `O=c1cc(C(F)(F)F)[nH]c2c(C(F)(F)F)cccc12`, the half-maximal inhibitory concentration (IC50) is 9.03 µM.
With `CC(=O)c1c(C)oc2c1C(=O)c1ccccc1C2=O` the figure was > 100 µM (inactive); with `O=C(c1cc(-c2ccccc2O)on1)N1CCc2ccccc2C1`, > 100 µM (inactive).
The figure for `Clc1ccc(N/N=C/c2cccnc2)cc1` is > 100 µM (inactive).
With `O=C(O)C1C2C=CC(O2)C1C(=O)NC1CCCc2ccccc21` (stereo not drawn) the figure was > 100 µM (inactive).
For the compound `C=CCn1c2ccccc2c2nnc(SCN3C(=O)c4ccccc4C3=O)nc21`, the IC50 is > 100 µM (inactive).
As for `OC(CNCCc1ccc(C(F)(F)F)cc1)COc1ccc2ccccc2c1` (stereo not drawn), the IC50 was > 100 µM (inactive).
On to `CCCCn1c(=O)c(C(=O)NCc2ccncc2)c(O)c2ccccc21`, for which the IC50 is > 100 µM (inactive).
With `O=C(N/N=C/c1cc2c3c(c1O)CCCN3CCC2)c1ccccc1O` the figure was 37.5 µM; with `Cc1cc(N/N=C/c2ccc(Cl)cc2Cl)nc(NCc2ccccc2)n1`, 28.9 µM; with `CC(C)c1ccc2c(c1)C1(NN=C(c3ccccc3)S1)C(=O)N2` (stereo not drawn), 26.3 µM.
The figure for `Cc1noc2ncnc(Sc3ccccc3Cl)c12` is 26.6 µM; for `Cc1sc2ncnc(N/N=C/c3ccccc3O)c2c1C` it is 42.2 µM.
With `O=C(COc1ccc(Cl)cc1)NC1=NN(c2ccccc2)C(=O)C1` the figure was > 100 µM (inactive); with `Cn1c(=O)c(C(=O)Nc2ncccn2)c(O)c2ccccc21`, 33 µM.
Consider `Cc1cccc(/C(N)=N/OC(=O)c2ccc(F)cc2)c1`, for which the IC50 was 23.8 µM.
The figure for `Cc1cccc(C(=O)NC(=S)NNC(=O)c2cccs2)c1` is 30.6 µM; for `O=C(Nc1ccc(Cl)cc1)ON=C1CCCC1` it is 3.69 µM.
With `CCc1ccc(/C=C/C(=O)c2cc(Br)ccc(=O)c2O)cc1` the figure was 9.89 µM.
As to `O=[N+]([O-])c1ccc(N/N=C2/CCCCC2c2ccccn2)cc1` (stereo not drawn), the IC50 is 5.86 µM.
The figure for `Cc1ccc(NC(=O)CSC2=C(C#N)C(c3ccc4c(c3)OCO4)C3=C(CCCC3=O)N2)c(C)c1` (stereo not drawn) is > 100 µM (inactive); for `CC1Cc2ccccc2N1C(=O)CSC1=NCCS1` (stereo not drawn) it is > 100 µM (inactive).
The figure for `C=CCN1C(C(=O)c2ccccc2)=C(OC(=O)COc2ccccc2)c2ccccc2S1(=O)=O` is 26.9 µM; for `COC(=O)Cn1c2ccc(C)cc2c2nc(C)sc21` it is > 100 µM (inactive); for `O=S(=O)(Nc1ccc(-c2csc(-c3ccccc3)n2)cc1)c1ccc(F)cc1` it is > 100 µM (inactive).
`Cc1cccc(N=C2Sc3nc4c(C)c(C)ccc4cc3CN2CCN2CCOCC2)c1`: the IC50 is 44.7 µM.
With `O=C(/C=C/c1ccccc1Cl)c1ccccc(=O)c1O` the figure was 9.76 µM.
With `O=C(/C=C/N1CCOCC1)c1ccc(-c2ccccc2)cc1` the figure was 11.5 µM.
The figure for `CC(=O)N1c2ccccc2C2(O)N=C(C)SC12` (stereo not drawn) is > 100 µM (inactive); for `O=C1CN(CC(=O)N2CCCCC2)c2ccccc2O1` it is 43.3 µM; for `COC(=O)c1ccc(C(=O)OC)c(NC(=O)CSc2cccc[n+]2[O-])c1` it is 0.822 µM.
With `O=C(/C=C/c1ccccc1)c1cc(Br)ccc(=O)c1O`, the IC50 is 10.1 µM.
The figure for `Cc1ccc(N=Nc2ccc(O)c3ncccc23)cc1` is 34.3 µM; for `CC(C)c1ccc(NC(=S)NCCc2c[nH]c3ccccc23)cc1` it is > 100 µM (inactive).
As to `CCCn1c(CNc2ccccc2O)nc2ccccc21`, the IC50 was > 100 µM (inactive).
With `Cc1ccc(NC(=S)Nc2ccc(Cl)c(Cl)c2)c(OC(F)F)c1` the figure was 22.2 µM; with `Clc1ccc(N/N=C/c2ccncc2)cc1Cl`, > 100 µM (inactive); with `Oc1c(Br)cc(Br)cc1/C=N/c1nc2c(s1)CCCC2`, 17.5 µM.
With `CCOc1ccc(NCc2nc3ccccc3n2CCOc2ccccc2)cc1` the figure was > 100 µM (inactive).
For the compound `O=C(O)CCC(=O)N1CCN(c2nc(-c3ccccc3Cl)c3cc(Br)ccc3n2)CC1`, the IC50 was 29.3 µM.
The figure for `O=S(=O)(Cc1ccccc1)NCc1cccnc1` is > 100 µM (inactive); for `Cc1ccc(C(=O)O/N=C/c2c(N3CCOCC3)n(C)c3ccccc23)cc1` it is > 100 µM (inactive); for `COc1ccc(-c2n[nH]c(C(F)(F)F)c2-c2cc3ccccc3o2)c(O)c1` it is 26.1 µM.
With `CC(C)(C)C(=O)O/N=C1/C(=O)N(c2ccccc2)c2ccccc21` the figure was 30.6 µM; with `Cc1cc(C)c2c(=O)n(CC(=O)N3CCC(Cc4ccccc4)CC3)sc2n1`, > 100 µM (inactive).
Turning to `Clc1ccc(COC(Cn2ccnc2)c2ccc(Cl)cc2Cl)cc1` (stereo not drawn), the IC50 is 0.809 µM.
With `CC1CCCCN1S(=O)(=O)c1coc(C(N)=O)c1` (stereo not drawn) the figure was > 100 µM (inactive).
The figure for `Cn1cccc1C(=O)NC(=O)CSc1cccc[n+]1[O-]` is 21.8 µM.
With `CCCCCCc1ccc(-c2ncc(N)cn2)cc1` the figure was 25.9 µM; with `CCCCCCCCCCCCCCCC[n+]1ccc(C(N)=O)cc1`, 1.1 µM; with `Cc1nn(-c2ccccc2)c2sc(C(=O)O)cc12`, 47.2 µM.
Regarding `N/C(Cc1ccc(Cl)cc1)=N\OC(=O)c1cccc2ccccc12`, the IC50 was 41 µM.
Regarding `O=C(Nc1nc(-c2ccccn2)cs1)c1ccc(Br)s1`, the half-inhibitory concentration (IC50) was 9.04 µM.
With `CCCn1c(C(C)NC(C)=O)nc2ccccc21` (stereo not drawn) the figure was > 100 µM (inactive); with `c1ccc2c(c1)oc1c(N3CCOCC3)ncnc12`, 32.1 µM.
